Consider one molecule from patent US6506580B1, “Splice variants for human 5-HT4 serotonin receptor and their applications, in particular for screening” (Institut National de la Sante et de la Recherche Medicale …, priority 1997, dated 2003).

Usually Ki stands for a dissociation constant, usually derived from enzyme kinetics or from competition with a known ligand.

Experiment [1] deals with cells expressing the isoforms of the receptor 5-HT4. Put plainly: cAMP formation in transiently transfected COS-7 cells, statement for all isoforms together. The class given is cell-based, human. The following applies: preincubation with 1 μM prior to 5-HT, COS-7 cells expressing the isoforms. The procedure: The entire coding region of the cDNAs of 5-HT4(a), 5-HT4(b), 5-HT4(c) and 5-T4(d) was subcloned into a mammalian expression vector pRC/CMV (Invitrogen, Carlsbad, Calif.). The transfections were carried out using polyethyleneimine (PEI) as described in Boussif et al. (1995). The cells were transfected using a mixture of DNA and of PEI in a ratio of 20 μmol of PEI/mg of DNA in 0.9% NaCl. […] The cells transfected with the receptor 5-HT4 cDNA constructs were compared with the “blank”-transfected cells, which were exposed to the unmodified pRC/CMV plasmid. […] The reaction was stopped by aspiration of the medium and addition of 500 μl of ice-cold ethanol. After one hour at room temperature, the cells were scraped, and everything was collected and freeze-dried. The pellet was resuspended in 350 μl of PBS and centrifuged for 5 min at 300 g. The cAMP was quantified in the supernatant using a radioimmunological assay (E.R.I.A. assay kit from Pasteur Diagnostics 79830). Student's t tests were carried out using the program Quick TEst.
A general note: Cyclic AMP is a second messenger, typically raised through Gs and lowered through Gi signalling.

The subject of experiment [2] is “blank”-transfected COS-7 cells. The experiment is described as follows: cAMP formation in control COS-7 cells. The class given is cell-based. The settings on record: 1 μM. How it is done:
(§1) The entire coding region of the cDNAs of 5-HT4(a), 5-HT4(b), 5-HT4(c) and 5-T4(d) was subcloned into a mammalian expression vector pRC/CMV (Invitrogen, Carlsbad, Calif.). The transfections were carried out using polyethyleneimine (PEI) as described in Boussif et al. (1995). The cells were transfected using a mixture of DNA and of PEI in a ratio of 20 μmol of PEI/mg of DNA in 0.9% NaCl. For the radioligand binding assays, the COS-7 cells were seeded into culture flasks of 1.5×10^4 mm^2 one day before the transfection, at a density of 1×10^7 cells/flask, incubated for six hours with plasmid DNA (150 μg/flask) and collected 48 hours after transfection. For the measurement of cAMP formation, the COS-7 cells were seeded onto twelve-well plates one day before transfection, at a density of 5×10^5 cells/well, incubated for six hours with plasmid DNA (4 to 8 μg/well according to the experiments) and assayed 24 hours after the transfection. The cells transfected with the receptor 5-HT4 cDNA constructs were compared with the “blank”-transfected cells, which were exposed to the unmodified pRC/CMV plasmid.
(§2) To measure intracellular cAMP accumulation, the transiently transfected COS-7 cells were incubated, 24 hours after transfection, in Dulbecco's modified Eagle medium (DMEM) containing 5 mM theophylline, 10 mM HEPES and 10 μM pargyline for 15 minutes at 37° C., in the presence of 5% CO2. […] The reaction was stopped by aspiration of the medium and addition of 500 μl of ice-cold ethanol. After one hour at room temperature, the cells were scraped, and everything was collected and freeze-dried. The pellet was resuspended in 350 μl of PBS and centrifuged for 5 min at 300 g. The cAMP was quantified in the supernatant using a radioimmunological assay (E.R.I.A. assay kit from Pasteur Diagnostics 79830). Student's t tests were carried out using the program Quick TEst.

In experiment [3] the target is receptor 5-HT4(d) (Homo sapiens, UniProt Q13639). Put plainly: cAMP formation in transiently transfected COS-7 cells. Type of experiment: cell-based. More on the design: The entire coding region of the cDNAs of 5-HT4(a), 5-HT4(b), 5-HT4(c) and 5-T4(d) was subcloned; expressed in transfected cells; host or cells: COS-7 cells, transient, pRC/CMV vector; cDNA amplified from human brain and ileum RNA. The following applies: COS-7, 1 μM, no agonist. The procedure: The entire coding region of the cDNAs of 5-HT4(a), 5-HT4(b), 5-HT4(c) and 5-T4(d) was subcloned into a mammalian expression vector pRC/CMV (Invitrogen, Carlsbad, Calif.). The transfections were carried out using polyethyleneimine (PEI) as described in Boussif et al. (1995). The cells were transfected using a mixture of DNA and of PEI in a ratio of 20 μmol of PEI/mg of DNA in 0.9% NaCl. For the radioligand binding assays, the COS-7 cells were seeded into culture flasks of 1.5×10^4 mm^2 one day before the transfection, at a density of 1×10^7 cells/flask, incubated for six hours with plasmid DNA (150 μg/flask) and collected 48 hours after transfection. For the measurement of cAMP formation, the COS-7 cells were seeded onto twelve-well plates one day before transfection, at a density of 5×10^5 cells/well, incubated for six hours with plasmid DNA (4 to 8 μg/well according to the experiments) and assayed 24 hours after the transfection. […]
receptor 5-HT4(d), sequence (Q13639 1-360 isoform Q13639-3): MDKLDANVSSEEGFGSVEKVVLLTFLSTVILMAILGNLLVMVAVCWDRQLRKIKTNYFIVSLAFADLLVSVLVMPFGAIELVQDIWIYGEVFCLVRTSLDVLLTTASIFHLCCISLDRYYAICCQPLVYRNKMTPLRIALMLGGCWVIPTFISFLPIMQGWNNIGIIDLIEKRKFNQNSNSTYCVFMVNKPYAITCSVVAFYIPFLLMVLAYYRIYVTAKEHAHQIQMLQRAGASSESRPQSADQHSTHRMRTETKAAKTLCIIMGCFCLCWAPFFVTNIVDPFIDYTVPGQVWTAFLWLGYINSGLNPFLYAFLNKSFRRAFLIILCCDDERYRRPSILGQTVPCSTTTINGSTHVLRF
To measure intracellular cAMP accumulation, the transiently transfected COS-7 cells were incubated, 24 hours after transfection, in Dulbecco's modified Eagle medium (DMEM) containing 5 mM theophylline, 10 mM HEPES and 10 μM pargyline for 15 minutes at 37° C., in the presence of 5% CO2. […] The cAMP was quantified in the supernatant using a radioimmunological assay (E.R.I.A. assay kit from Pasteur Diagnostics 79830). […]

Experiment [4] has as its target T1, receptor 5-HT4(a) (Homo sapiens, UniProt Q13639).
T1 construct: The entire coding region of the cDNAs of 5-HT4(a), 5-HT4(b), 5-HT4(c) and 5-T4(d) was subcloned; expressed in transfected cells; host or cells: COS-7 cells, transient, pRC/CMV vector
The experiment is described as above. The class given is cell-based. The following applies: COS-7, 1 μM, no agonist. How it is done:
as §1, §2

Experiment [5] addresses T2, receptor 5-HT4(b) (Homo sapiens, UniProt Q13639).
T2 construct: The entire coding region of the cDNAs of 5-HT4(a), 5-HT4(b), 5-HT4(c) and 5-T4(d) was subcloned; expressed in transfected cells; host or cells: COS-7 cells, transient, pRC/CMV vector; cDNA amplified from human brain and ileum RNA
The description is as above. The class given is cell-based. The settings on record: COS-7, 1 μM, no agonist. How it is done: as §1, §2

Experiment [6] deals with T1, receptor 5-HT4(a). The experiment is described as follows: [3H]GR113808 radioligand binding, membranes of transiently transfected COS-7 cells. The settings on record: read-out: Ki, competition for [3H]GR113808 binding. How it is done:
as §1
(§3) Each flask of cells intended for the radioligand binding assays was washed twice with a phosphate buffer (PBS). The cells were then scraped, collected and centrifuged at 300 g for five minutes. The pellet was resuspended in 2.5 ml of ice-cold HEPES buffer (50 mM, pH 7.4) and homogenized with an Ultraturax tissue grinder. The lysate was then centrifuged at 40,000 g for 20 minutes at 4° C. The resulting pellet was resuspended in 15 volumes of HEPES buffer (50 mM, pH 7.4). The membrane preparations were maintained in ice and used within two hours for radioligand binding assays. The protein concentrations were determined by the method of Lowry et al., 1951, using bovine serum albumin as standard.
(§4) The saturation studies were performed using [^3H] GR113808 at 9 different concentrations ranging from 0.01 to 3.5 nM. The tubes were incubated at 25° C. for 30 minutes. The reaction-was stopped by rapid filtration, under vacuum, through Whatman GF/B filter paper using the Brandel 48R cell harvester. The filters were presoaked in a solution of PEI (0.1%) to reduce the binding to the filters. The filters were then washed with an ice-cold buffer (50 mM Tris-HCl, pH 7.4) and placed in 4 ml of “ready safe” scintillation cocktail (Beckman, Fullerton, Calif.) overnight. The radioactivity was measured using a Beckman LS 6500 C liquid scintillation counter. The binding data were analysed by computer-assisted nonlinear regression analysis (Graph Pad Prism Program, Graph Pad Software, Inc., San Diego, Calif.).
(§5) The experiments correspond to the competition of various compounds for [^3H]GR113808 binding to membranes of transiently transfected COS-7 cells. […] The estimations of affinity are given as Ki values in nM, and are determined from IC50 values obtained by computer-assisted nonlinear curve analysis (GraphPad, Prism Software). The Ki values are representative of at least two determinations.

Experiment [7] addresses T2, receptor 5-HT4(b). Described as above. The following applies: read-out: Ki, competition for [3H]GR113808 binding. How it is done: as §1, §3, §4, §5

T1 sequence (Q13639 1-387 isoform Q13639-2): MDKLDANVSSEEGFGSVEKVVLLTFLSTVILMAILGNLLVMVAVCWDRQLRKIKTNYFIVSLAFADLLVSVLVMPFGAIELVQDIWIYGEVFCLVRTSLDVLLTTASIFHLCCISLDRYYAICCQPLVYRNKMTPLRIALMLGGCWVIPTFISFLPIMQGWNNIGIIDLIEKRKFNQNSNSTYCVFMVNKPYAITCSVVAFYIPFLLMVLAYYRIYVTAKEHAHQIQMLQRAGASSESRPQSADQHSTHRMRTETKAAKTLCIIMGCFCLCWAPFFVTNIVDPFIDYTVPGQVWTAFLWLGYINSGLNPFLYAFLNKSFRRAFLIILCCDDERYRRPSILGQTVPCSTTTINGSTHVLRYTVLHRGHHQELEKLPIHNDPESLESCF
T2 sequence (Q13639 whole entry): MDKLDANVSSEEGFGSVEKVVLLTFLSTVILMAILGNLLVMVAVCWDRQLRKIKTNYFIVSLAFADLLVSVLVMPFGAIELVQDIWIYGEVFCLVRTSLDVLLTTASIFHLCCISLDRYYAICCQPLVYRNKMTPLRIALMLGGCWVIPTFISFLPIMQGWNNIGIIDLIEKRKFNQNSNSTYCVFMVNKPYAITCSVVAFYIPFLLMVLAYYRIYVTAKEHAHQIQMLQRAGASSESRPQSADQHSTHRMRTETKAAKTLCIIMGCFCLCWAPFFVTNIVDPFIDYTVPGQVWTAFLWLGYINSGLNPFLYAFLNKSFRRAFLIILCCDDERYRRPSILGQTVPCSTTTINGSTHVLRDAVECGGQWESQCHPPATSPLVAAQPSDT

In the case of `COc1cc(N)c(Cl)cc1C(=O)OCCN1C[C@H](C)C[C@H](C)C1` [ML10375, 2-(cis-3,5-dimethyl-piperidino)ethyl 4-amino-5-chloro-2-methoxybenzoate], in experiment [1], the “antagonism of the capacity of 5-HT (1 μM) to increase basal cAMP levels” value is listed as “antagonizes”. The “effect on basal adenylate cyclase activity / basal cAMP levels” value in experiment [2] is “no significant effect”. In addition, the “reduction of the basal cAMP levels” value in experiment [3] is on record as 24%. Further, the “effect on the basal cAMP levels” value in experiment [4] and in experiment [5] was “no significant effect” each time. For the same molecule, the figures for the Ki in experiment [6] and in experiment [7] were 0.56 ± 0.11 nM and 1.62 ± 0.82 nM, respectively.
